Values joined by “and” are separate entries in the source; they are usually repeats but may differ in a detail not shown here. Identical values can stand only once. Numbers after ± are expanded uncertainties.

This is an account of results in the NIST ThermoML archive (doi:10.1016/j.jct.2006.07.023).

Data set [1] is described as follows: Molar enthalpy of transition or fusion. To be noted: DSC.
The conditions of data set [2]: DTA.

With `CC(=O)[O-].CC(=O)[O-].[Pb+2]` [lead(2+) acetate], in data set [1] (Crystal), the “Molar enthalpy of transition or fusion” value was found to be 3.78 ± 0.0956 kcal/mol. Besides, the Triple point temperature in data set [2] (Crystal) is 452.3 ± 1.6 K. In data set [2], the Glass transition temperature worked out at 41.2 ± 3 °C.
Regarding `CCCC(=O)[O-].CCCC(=O)[O-].[Pb+2]` [lead(2+) dibutanoate], the “Molar enthalpy of transition or fusion” value was 3.51 kcal/mol and 3.49 kcal/mol in data set [1] (Crystal); 1.84 ± 0.191 kcal/mol in data set [1] (Metastable crystal). Also, the Triple point temperature in data set [2] (Crystal) is 346.5 ± 0.7 K and 346.3 ± 0.9 K; in data set [2] (Metastable crystal) it was 322.8 ± 1.1 K. Moreover, the Glass transition temperature in data set [2] is 1.8 ± 3 °C.
As for `CCC(=O)[O-].CCC(=O)[O-].[Pb+2]` [lead(2+) dipropanoate], the “Molar enthalpy of transition or fusion” value in data set [1] (Crystal) came out at 3.13 ± 0.0956 kcal/mol. The Triple point temperature in data set [2] (Crystal) came out at 398.1 ± 1.1 K. The Glass transition temperature in data set [2] came out at 25 ± 3 °C.
